Assay results as given in ChEMBL document CHEMBL4376854, “Investigation of the Adrenergic and Opioid Binding Affinities, Metabolic Stability, Plasma Protein Binding Properties, and Functional Effects of Selected Indole-Based Kratom Alkaloids” (J Med Chem, 2020).

Target: Mu-type opioid receptor (Homo sapiens, UniProt P35372)
Details: HEK293, 100 nM

Sequence of Mu-type opioid receptor (P35372 whole entry): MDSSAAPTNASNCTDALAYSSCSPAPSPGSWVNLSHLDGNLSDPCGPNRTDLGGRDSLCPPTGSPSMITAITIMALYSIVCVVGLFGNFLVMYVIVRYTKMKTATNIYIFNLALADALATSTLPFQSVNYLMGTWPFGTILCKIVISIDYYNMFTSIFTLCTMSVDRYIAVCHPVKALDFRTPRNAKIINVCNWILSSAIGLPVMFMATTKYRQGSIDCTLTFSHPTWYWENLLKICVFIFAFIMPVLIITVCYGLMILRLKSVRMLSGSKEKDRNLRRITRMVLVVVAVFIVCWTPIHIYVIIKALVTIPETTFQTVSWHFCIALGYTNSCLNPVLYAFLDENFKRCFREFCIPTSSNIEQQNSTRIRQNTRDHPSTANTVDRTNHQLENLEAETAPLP

Compound CC[C@@H]1CN2CCc3c([nH]c4cccc(OC)c34)[C@@H]2C[C@@H]1/C(=C\OC)C(=O)OC has an inhibition of 29%.
